One assay deals with NCI-H460 cells. As to the kind of experiment: 48-hour cellular proliferation assay, sulforhodamine stain (human lung large cell carcinoma, MDR negative). In kind it is cell-based. To be noted: for IC50: NCI-H460 cells. As for the experimental part: (§1) Compounds of this invention were tested in a 48-hour cellular proliferation assay that uses human colon adenocarcinoma, MDR positive (HCT-15) cells, and human lung large cell carcinoma, MDR negative (NCI-H460) cells, in the 96-well microtitre format described in Skehan P., et al. New Colorimetric Cytotoxicity Assay for Anticancer Drug Screening. 1990, J. Natl. Cancer Inst. 82:1107-1112, hereby incorporated by reference. Briefly, the wells of a microtitre plate were charged sequentially with cultured cells and compounds of the invention (1.0×10^-4 to 1.0×10^-11 M in 10% DMSO prepared by dissolving compounds of the invention in DMSO and adding 11 μL of the DMSO solution to 100 μL of culture medium for a final DMSO concentration of 10%). Two of the following controls were also present in each microtitre plate: a solvent (DMSO) control without drug that yielded a 0% inhibition level and a trichloroacetic acid-treated well that yielded a 100% inhibition level. The cells were grown in culture (37° C., 5% CO2 atmosphere) for 48 hours then fixed by the addition of trichloroacetic acid. The wells were stained with sulforhodamine, washed with 1% acetic acid, and treated with 0.01 M tris buffer (100 μL) to solubilize the adherent dye. The absorbance of the dye solution was measured with a Molecular Devices SpectraMax340 plate reader. Percent inhibition and Inhibitory Concentrations (IC50) values were obtained by calculating the proportional response of the experimental values to the absorbance values of the controls.

The next assay deals with HCT-15 cells. As to the kind of experiment: 48-hour cellular proliferation assay, sulforhodamine stain (human colon adenocarcinoma, MDR positive). The format is cell-based. As for the experimental part:
as §1

Where [1] appears, read: Homo sapiens, NCI-460 cells, 10^-4 M.
The mark [2] stands for this setting: Homo sapiens, values given in μM.

Consider `COc1ccc(C2=NCC(c3cc(OC)c(OC)c(OC)c3)O2)cc1N` (stereo not shown) [Example 39, 2-(3-amino-4-methoxyphenyl)-5-(3,4,5-trimethoxyphenyl)-Δ2,3-oxazoline], for which the IC50 in the assay on NCI-H460 cells (Homo sapiens, values in nM) is 68 nM; in the assay on HCT-15 cells (Homo sapiens, values in nM), 33 nM.
Take `COc1cc(C2CN=C(c3c[nH]c4ccccc34)O2)cc(OC)c1OC` (stereo not shown) [Example 7, 2-(indol-3-yl)-5-(3,4,5-trimethoxyphenyl)-Δ2,3-oxazoline]: the inhibition at 100 µM in the assay on NCI-H460 cells (setting [1]) was determined as 100%; in the assay with HCT-15 cells (Homo sapiens, 10^-4 M), 100%.
`COc1cc(C2CN=C(c3ccc4[nH]cc(F)c4c3)O2)cc(OC)c1OC` (stereo not shown) [Example 67, 2-(3-fluoro-5-indolyl)-5-(3,4,5-trimethoxyphenyl)-Δ2,3-oxazoline]: the IC50 with NCI-H460 cells (Homo sapiens, values in nM) is 38 nM; in the assay on HCT-15 cells (Homo sapiens, values in nM) it was 23 nM.
For the molecule `COc1cc(C2CN=C(c3cc4ccccc4[nH]3)O2)cc(OC)c1OC` (stereo not shown) [Example 8, 2-(indol-2-yl)-5-(3,4,5-trimethoxyphenyl)-Δ2,3-oxazoline], the inhibition at 100 µM came to 100% in the assay on NCI-H460 cells (setting [1]) and 100% in the assay on HCT-15 cells (Homo sapiens, 10^-4 M).
For the molecule `COc1cc(C2CN=C(c3cc(F)c4[nH]ccc4c3)O2)cc(OC)c1OC` (stereo not shown) [Example 63, 2-(7-fluoro-5-indolyl)-5-(3,4,5-trimethoxyphenyl)-Δ2,3-oxazoline], the IC50 in the assay with NCI-H460 cells (Homo sapiens, values in nM) was 43 nM; in the assay on HCT-15 cells (Homo sapiens, values in nM), 20 nM.
In the same order, the values of `COc1cc(C2CN=C(c3ccc4c(ccn4C(F)F)c3)O2)cc(OC)c1OC` (stereo not shown) [Example 61, 2-(1-difluoromethylindol-5-yl)-5-(3,4,5-trimethoxyphenyl)-Δ2,3-oxazoline] are 1.8 nM and 1.9 nM.
As to `COc1cc(C2CN=C(c3ccc4ncccc4c3)O2)cc(OC)c1OC` (stereo not shown) [Example 35, 2-(6-guinolinvl)-5-(3,4,5-trimethoxyphenyl)-Δ2,3-oxazoline], the results for the IC50 with NCI-H460 cells (setting [2]) and in the assay with HCT-15 cells (setting [2]) were 3200 nM and 2400 nM, respectively.
For the molecule “2-(3-hydroxy-4-methoxyphenyl)-4-dimethyl-5-(3,4,5-trimethoxyphenyl)-Δ2,3-oxazoline [Example 13]”, the “NCI-460 (% Inhibition at 10^-4 M)” value with NCI-H460 cells (NCI-460 cells, 10^-4 M) came to 100%. Moreover, in the assay with HCT-15 cells (10^-4 M), the “HCT-15 (% Inhibition at 10^-4 M)” value amounted to 100%.
On to `COc1cc(C2CN=C(c3ccc4c(c3)CCCN4C)O2)cc(OC)c1OC` (stereo not shown) [Example 14, 2-(N-methyl-tetrahydroquinol-6-yl)-5-(3,4,5-trimethoxyphenyl)-Δ2,3-oxazoline], for which the inhibition at 100 µM turned out to be 100% in the assay with NCI-H460 cells (setting [1]) and 100% with HCT-15 cells (Homo sapiens, 10^-4 M).
As to `CCOc1ccc(C2=NCC(c3cc(OC)c(OC)c(OC)c3)O2)cc1` (stereo not shown) [Example 16, 2-(4-ethoxyphenyl)-5-(3,4,5-trimethoxyphenyl)-Δ2,3-oxazoline], the inhibition at 100 µM came out at 90.7% in the assay with NCI-H460 cells (setting [1]) and 96.2% in the assay on HCT-15 cells (Homo sapiens, 10^-4 M).
As for `COc1cc(C2CN=C(c3cn(C)c4ccccc34)O2)cc(OC)c1OC` (stereo not shown) [Example 33, 2-(1-methylindol-3-yl)-5-(3,4,5-trimethoxyphenyl)-Δ2,3-oxazoline], the IC50 is 120 nM in the assay with NCI-H460 cells (Homo sapiens, values in nM) and 32 nM with HCT-15 cells (Homo sapiens, values in nM).
In the same order, the values of `COc1cc(C2CN=C(c3ccc(C)c(N)c3)O2)cc(OC)c1OC` (stereo not shown) [Example 40, 2-(3-amino-4-methyphenyl)-5-(3,4,5-trimethoxyphenyl)-Δ2,3-oxazoline] are 82 nM and 62 nM.
With `COc1cc(C2CN=C(c3ccc(N)c(C)c3)O2)cc(OC)c1OC` (stereo not shown) [Example 12, 2-(4-amino-3-methylphenyl)-5-(3,4,5-trimethoxyphenyl)-Δ2,3-oxazoline], the inhibition at 100 µM in the assay on NCI-H460 cells (setting [1]) amounted to 100%; in the assay with HCT-15 cells (Homo sapiens, 10^-4 M), 100%.
As for `COc1ccc(C2=NCC(c3cc(OC)c(OC)c(OC)c3)O2)cc1OC` (stereo not shown) [Example 17, 2-(3,4-dimethoxyphenyl)-5-(3,4,5-trimethoxyphenyl)-Δ2,3-oxazoline], the inhibition at 100 µM in the assay with NCI-H460 cells (setting [1]) was 85.8%; in the assay with HCT-15 cells (Homo sapiens, 10^-4 M), 91%.
Take `COc1ccc(C2=NCC(c3cc(OC)c(OC)c(OC)c3)O2)cc1NC(=O)C(C)NC(=O)C(C)N` (stereo not shown) [Example 41]: the results for the IC50 in the assay with NCI-H460 cells (values in nM) and in the assay with HCT-15 cells (values in nM) were 590 nM and 520 nM, respectively.
`COc1cc(C2CN=C(c3cc(C)c4[nH]ccc4c3)O2)cc(OC)c1OC` (stereo not shown) [Example 72, 2-(7-methyl-5-indolyl)-5-(3,4,5-trimethoxyphenyl)-Δ2,3-oxazoline]: the IC50 is 36 nM with NCI-H460 cells (Homo sapiens, values in nM) and 11 nM with HCT-15 cells (Homo sapiens, values in nM).
As to `COc1cc(C2CN=C(c3ccc4[nH]ccc4c3)O2)cc(OC)c1OC` (stereo not shown) [Example 11, 2-(indol-5-yl)-5-(3,4,5-trimethoxyphenyl)-Δ2,3-oxazoline], the inhibition at 100 µM in the assay with NCI-H460 cells (setting [1]) was 100%; with HCT-15 cells (Homo sapiens, 10^-4 M), 100%.
For the molecule `COc1cc(C2CN=C(c3ccc4c(c3)nc(C)n4C)O2)cc(OC)c1OC` (stereo not shown) [Example 75, 2-(1,2-dimethylbenzimidazol-5-yl)-5-(3,4,5-trimethoxyphenyl)-Δ2,3-oxazoline], the IC50 is 3800 nM in the assay with NCI-H460 cells (setting [2]) and 1900 nM in the assay with HCT-15 cells (setting [2]).
Turning to `COc1cc(C2CN=C(C3CC3C)O2)cc(OC)c1OC` (stereo not shown) [Example 15, 2-(2-methyl-cyclopropyl)-5-(3,4,5-trimethoxyphenyl)-Δ2,3-oxazoline], the inhibition at 100 µM with NCI-H460 cells (setting [1]) is 50%; in the assay with HCT-15 cells (Homo sapiens, 10^-4 M) it was 50%.
With `COc1cc(C2CN=C(c3ccnc4ccccc34)O2)cc(OC)c1OC` (stereo not shown) [Example 37, 2-(4-quinolinyl)-5-(3,4,5-trimethoxyphenyl)-Δ2,3-oxazoline], the values for the half-maximal inhibitory concentration (IC50) in the assay on NCI-H460 cells (setting [2]) and with HCT-15 cells (setting [2]) were 37000 nM and 44000 nM, respectively.
On to `COc1cc(C2CN=C(c3ccc4c(c3)c(Cl)cn4C)O2)cc(OC)c1OC` (stereo not shown) [Example 62, 2-(3-chloro-1-methylindol-5-yl)-5-(3,4,5-trimethoxyphenyl)-Δ2,3-oxazoline], for which the IC50 with NCI-H460 cells (Homo sapiens, values in nM) came out at 37 nM; in the assay with HCT-15 cells (Homo sapiens, values in nM), 23 nM.
As for `COc1cc(C2=NCC(c3cc(OC)c(OC)c(OC)c3)O2)ccc1OCc1ccccc1` (stereo not shown) [Example 18, 2-(4-benzyloxy-3-methoxyphenyl)-5-(3,4,5-trimethoxyphenyl)-Δ2,3-oxazoline], the inhibition at 100 µM with NCI-H460 cells (setting [1]) is 92.2%; in the assay with HCT-15 cells (Homo sapiens, 10^-4 M), 96%.
Turning to `COCn1ccc2cc(C3=NCC(c4cc(OC)c(OC)c(OC)c4)O3)ccc21` (stereo not shown) [Example 70, 2-(1-methoxymethyl-5-indolyl)-5-(3,4,5-trimethoxyphenyl)-Δ2,3-oxazoline], the IC50 is 210 nM in the assay with NCI-H460 cells (Homo sapiens, values in nM) and 170 nM with HCT-15 cells (Homo sapiens, values in nM).
In the same order, the values of `COc1cc(C2CN=C(c3cc4ccn(C)c4cc3Cl)O2)cc(OC)c1OC` (stereo not shown) [Example 60, 2-(6-Chloro-1-methylindol-5-yl)-5-(3,4,5-trimethoxyphenyl)-Δ2,3-oxazoline] are 410 nM and 280 nM.
For `COCn1ccc2cc(C3=NCC(c4cc(OC)c(OC)c(OC)c4)O3)ccc21` (stereo not shown) [Example 9, 2-(1-methoxymethylindol-5-yl)-5-(3,4,5-trimethoxyphenyl)-Δ2,3-oxazoline], the inhibition at 100 µM in the assay on NCI-H460 cells (setting [1]) worked out at 100%; in the assay with HCT-15 cells (Homo sapiens, 10^-4 M), 100%.
As to `COc1ccc(C2=NCC(c3cc(OC)c(OC)c(OC)c3)O2)cc1NC(=O)[C@@H](N)CO` (stereo partly shown) [Example 44], the IC50 in the assay with NCI-H460 cells (setting [2]) is 3800 nM; in the assay with HCT-15 cells (setting [2]) it was 6600 nM.
Consider `COc1cc(C2CN=C(c3ccc4c(c3)c(C(=O)C(F)(F)F)cn4C)O2)cc(OC)c1OC` (stereo not shown) [Example 77, 2-(1-methyl-3-trifluoroacetylindol-5-yl)-5-(3,4,5-trimethoxyphenyl)-Δ2,3-oxazoline], for which the IC50 with NCI-H460 cells (setting [2]) turned out to be 4200 nM; in the assay with HCT-15 cells (setting [2]), 3800 nM.
Regarding `COc1cc(C2CN=C(c3ccc4c(ccn4C)c3)O2)cc(OC)c1OC` (stereo not shown) [Example 6, 2-(1-methylindol-5-yl)-5-(3,4,5-trimethoxyphenyl)-Δ2,3-oxazoline], the inhibition at 100 µM in the assay with NCI-H460 cells (setting [1]) was 100%; in the assay with HCT-15 cells (Homo sapiens, 10^-4 M) it was 100%.
For the molecule `COc1cc(C2CN=C(c3cc(Br)cc4c3OCC4)O2)cc(OC)c1OC` (stereo not shown) [Example 19, 2-(2,3-dihydro-5-bromo-7-benzofuranyl)-5-(3,4,5-trimethoxyphenyl)-Δ2,3-oxazoline], the inhibition at 100 µM was 100% in the assay with NCI-H460 cells (setting [1]) and 98.9% in the assay with HCT-15 cells (Homo sapiens, 10^-4 M).

The IC50 is the concentration needed to halve the response being measured. The term inhibition denotes the relative decrease from the control value, in per cent. High values mean a response far below the control, low ones a response near the control.
